Literature values, collected in article PMC4284021 (The Journal of Pharmacy and Pharmacology, 2014).

What was measured:
CETP = details: cited from earlier work
patients [1] = details: cited from earlier work
patients [2] = details: cited from earlier work; remark: listed apart in the source
[3] = system: CYP11B1 (steroid 11 β-hydroxylase) and CYP11B2 (aldosterone synthase); details: branched DNA analysis; cited from earlier work
patients [4] = details: cited from earlier work; remark: listed apart in the source

Q: What does the source list for COc1cc(F)c(C(C)C)cc1-c1ccc(C(F)(F)F)cc1CN1C(=O)O[C@H](c2cc(C(F)(F)F)cc(C(F)(F)F)c2)[C@@H]1C [anacetrapib]?
A: time of peak CETP inhibition after dosing (CETP): 4 h; plasma concentrations after cessation of treatment (patients [1]; 12 weeks after cessation): significant plasma concentrations; changes in blood pressure or electrolyte or aldosterone levels (patients [1]; through 76 weeks): no changes were noted

Q: Which “mean systolic blood pressure higher than in the placebo group” value (patients [2]) does the source give for CCC(CC)CC1(C(=O)Nc2ccccc2SC(=O)C(C)C)CCCCC1 [dalcetrapib] here?
A: approximately 0.6 mmHg

Q: With CCOC(=O)N1c2ccc(C(F)(F)F)cc2[C@@H](N(Cc2cc(C(F)(F)F)cc(C(F)(F)F)c2)C(=O)OC)C[C@H]1CC [torcetrapib] as the compound, how does the “expression of genes regulating CYP11B1 and CYP11B2” value [3] read?
A: induced expression

Q: What about the “blood pressure and aldosterone levels” value (patients [4]) of the same compound?
A: increases in blood pressure and aldosterone levels

Q: And the “mortality and CV events” value (patients [4])?
A: excess risk
